pIC50: −log10 of the molar value. Read-outs that look alike come from different tables or passages of the source.
Target: NS3/NS4 complexes (Hepatitis C virus genotype 1a, UniProt P27958)
Experiment: NS3/NS4 inhibition activity (IC50)
Format: biochemical
Source text: NS3-NS4 inhibition activity can be determined using known assay methods. For example, NS3/NS4 complexes may be formed and inhibitory concentrations of test compounds determined as described in U.S. Patent Application Publication Number 2007/0054842 paragraph numbers 1497-1509, which is incorporated herein by reference in its entirety. Similarly, hepatitis C replicon EC50 may be determined using known assay methods such as described in U.S. Patent Application Publication Number 2007/0054842 paragraph numbers 1510-1515. Assays may be conducted at ambient temperature (23° C.) in assay buffer containing 50 mM Tris-HCl, pH 7.5, 15% glycerol, 0.6 mM Lauryldimethylamine Oxide (LDAO), 25 μM NS4A peptide, and 10 mM Dithiothreitol (DTT).

Chain of NS3/NS4 complexes (P27958 1027-1657): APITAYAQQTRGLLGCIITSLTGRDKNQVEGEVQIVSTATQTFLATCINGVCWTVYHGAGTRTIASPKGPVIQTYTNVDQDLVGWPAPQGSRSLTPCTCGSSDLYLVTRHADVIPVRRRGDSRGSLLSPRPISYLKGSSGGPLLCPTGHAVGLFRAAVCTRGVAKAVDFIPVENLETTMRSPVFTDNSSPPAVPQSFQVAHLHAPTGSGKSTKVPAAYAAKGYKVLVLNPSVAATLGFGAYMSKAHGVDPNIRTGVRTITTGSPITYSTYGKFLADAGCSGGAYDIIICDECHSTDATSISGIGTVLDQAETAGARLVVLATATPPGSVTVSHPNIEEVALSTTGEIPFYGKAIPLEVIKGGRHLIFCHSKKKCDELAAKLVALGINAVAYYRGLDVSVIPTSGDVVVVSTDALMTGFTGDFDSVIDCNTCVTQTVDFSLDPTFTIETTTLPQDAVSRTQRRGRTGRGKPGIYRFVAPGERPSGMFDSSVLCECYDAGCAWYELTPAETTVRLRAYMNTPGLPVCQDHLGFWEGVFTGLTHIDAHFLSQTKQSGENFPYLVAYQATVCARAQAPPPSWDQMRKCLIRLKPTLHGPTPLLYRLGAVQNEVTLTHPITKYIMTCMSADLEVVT
Chain of NS3/NS4 complexes (P27958 1658-1711): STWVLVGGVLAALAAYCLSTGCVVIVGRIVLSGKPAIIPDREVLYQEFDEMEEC

Row | pIC50 (Table 3, read-out: IC50) | SMILES | pIC50 (IC50, Table 3)
1 | < 7.00 | CC(C)(C)OC(=O)N[C@H]1CCCCC/C=C\[C@@H]2C[C@@]2(C(=O)O)NC(=O)[C@@H]2C[C@@H](Oc3nc4ccc(Cl)cc4o3)CN2C1=O [Compound 1041] | 
2 | 7.00 to 8.00 | CC(C)(C)OC(=O)N[C@H]1CCCCC/C=C\[C@@H]2C[C@@]2(C(=O)O)NC(=O)[C@@H]2C[C@@H](Oc3nc4cccc(F)c4o3)CN2C1=O [Compound 1042] | 
3 | 7.00 to 8.00 | CC(C)(C)OC(=O)N[C@H]1CCCCC/C=C\[C@@H]2C[C@@]2(C(=O)O)NC(=O)[C@@H]2C[C@@H](Oc3nc4cc(F)ccc4o3)CN2C1=O [Compound 1043] | 
4 | < 7.00 | Cc1ccc2oc(O[C@@H]3C[C@H]4C(=O)N[C@]5(C(=O)O)C[C@H]5/C=C\CCCCC[C@H](NC(=O)OC(C)(C)C)C(=O)N4C3)nc2c1 [Compound 1044] | 
5 |  | CC(C)(C)OC(=O)N[C@H]1CCCCC/C=C\[C@@H]2C[C@@]2(C(=O)N2CCC[C@H]2C(=O)NCc2ccccc2)NC(=O)[C@@H]2C[C@@H](OC(=O)N3Cc4cccc(F)c4C3)CN2C1=O [Compound 1054] | < 7.00
6 |  | CC(C)(C)OC(=O)N[C@H]1CCCCC/C=C\[C@@H]2C[C@@]2(C(=O)NCC(=O)NCc2ccccc2)NC(=O)[C@@H]2C[C@@H](O)CN2C1=O [Compound 1055] | < 7.00
7 |  | CC(C)(C)OC(=O)N[C@H]1CCCCC/C=C\[C@@H]2C[C@@]2(C(=O)N2CCC[C@H]2C(=O)NCc2ccccc2)NC(=O)[C@@H]2C[C@@H](O)CN2C1=O [Compound 1056] | < 7.00
8 | < 7.00 | CC(=O)O[C@@H]1C[C@H]2C(=O)N[C@]3(C(=O)NCCC(=O)NCc4ccccc4)C[C@H]3/C=C\CCCCC[C@H](NC(=O)OC(C)(C)C)C(=O)N2C1 [Compound 1059] | 
9 |  | CC(=O)O[C@@H]1C[C@H]2C(=O)N[C@]3(C(=O)NCC(=O)NCc4ccccc4)C[C@H]3/C=C\CCCCC[C@H](NC(=O)OC(C)(C)C)C(=O)N2C1 [Compound 1060] | < 7.00
10 |  | CO[C@@H]1C[C@H]2C(=O)N[C@]3(C(=O)NCC(=O)NCc4ccccc4)C[C@H]3/C=C\CCCCC[C@H](NC(=O)OC(C)(C)C)C(=O)N2C1 [Compound 1063] | < 7.00
11 |  | CO[C@@H]1C[C@H]2C(=O)N[C@]3(C(=O)N4CCC[C@H]4C(=O)NCc4ccccc4)C[C@H]3/C=C\CCCCC[C@H](NC(=O)OC(C)(C)C)C(=O)N2C1 [Compound 1064] | < 7.00
12 |  | CN(C)C(=O)O[C@@H]1C[C@H]2C(=O)N[C@]3(C(=O)NCC(=O)NCc4ccccc4)C[C@H]3/C=C\CCCCC[C@H](NC(=O)OC(C)(C)C)C(=O)N2C1 [Compound 1066] | < 7.00
13 | < 7.00 | CN(C)C(=O)O[C@@H]1C[C@H]2C(=O)N[C@]3(C(=O)NCCC(=O)NCc4ccccc4)C[C@H]3/C=C\CCCCC[C@H](NC(=O)OC(C)(C)C)C(=O)N2C1 [Compound 1067] | 
14 |  | CN(C)C(=O)O[C@@H]1C[C@H]2C(=O)N[C@]3(C(=O)N4CCC[C@H]4C(=O)NCc4ccccc4)C[C@H]3/C=C\CCCCC[C@H](NC(=O)OC(C)(C)C)C(=O)N2C1 [Compound 1068] | < 7.00
15 |  | CC(C)(C)OC(=O)N[C@H]1CCCCC/C=C\[C@@H]2C[C@@]2(C(=O)N2CCC[C@@H]2C(=O)NCc2ccccc2)NC(=O)[C@@H]2C[C@@H](O)CN2C1=O [Compound 1087] | < 7.00
16 |  | CC(=O)O[C@@H]1C[C@H]2C(=O)N[C@]3(C(=O)N4CCC[C@@H]4C(=O)NCc4ccccc4)C[C@H]3/C=C\CCCCC[C@H](NC(=O)OC(C)(C)C)C(=O)N2C1 [Compound 1088] | < 7.00
17 |  | CO[C@@H]1C[C@H]2C(=O)N[C@]3(C(=O)N4CCC[C@@H]4C(=O)NCc4ccccc4)C[C@H]3/C=C\CCCCC[C@H](NC(=O)OC(C)(C)C)C(=O)N2C1 [Compound 1089] | < 7.00
18 |  | CN(C)C(=O)O[C@@H]1C[C@H]2C(=O)N[C@]3(C(=O)N4CCC[C@@H]4C(=O)NCc4ccccc4)C[C@H]3/C=C\CCCCC[C@H](NC(=O)OC(C)(C)C)C(=O)N2C1 [Compound 1090] | < 7.00
19 | < 7.00 | CC(C)(C)OC(=O)N[C@H]1CCCCC/C=C\[C@@H]2C[C@@]2(C(=O)NS(=O)(=O)CC(=O)Nc2ccccc2)NC(=O)[C@@H]2C[C@@H](O)CN2C1=O [Compound 1092] | 
20 | < 7.00 | CN(C)C(=O)O[C@@H]1C[C@H]2C(=O)N[C@]3(C(=O)NS(=O)(=O)CC(=O)Nc4ccccc4)C[C@H]3/C=C\CCCCC[C@H](NC(=O)OC(C)(C)C)C(=O)N2C1 [Compound 1095] | 
21 | > 8.00 | CNC(=O)COc1ccccc1S(=O)(=O)NC(=O)[C@@]12C[C@H]1/C=C\CCCCC[C@H](NC(=O)OC(C)(C)C)C(=O)N1C[C@H](OC(=O)N(C)C)C[C@H]1C(=O)N2 [Compound 1097] | 
22 | < 7.00 | CC(=O)O[C@@H]1C[C@H]2C(=O)N[C@]3(C(=O)NS(=O)(=O)CC(=O)Nc4ccccc4)C[C@H]3/C=C\CCCCC[C@H](NC(=O)OC(C)(C)C)C(=O)N2C1 [Compound 1098] | 
23 | > 8.00 | CC(C)n1c(O[C@@H]2C[C@H]3C(=O)N[C@]4(C(=O)NS(=O)(=O)N(C)C)C[C@H]4/C=C\CCCCC[C@H](NC(=O)OC(C)(C)C)C(=O)N3C2)nc2ccncc21 [Compound 1145] | 

Reference: patent US8048862B2, “Macrocyclic inhibitors of hepatitis C virus replication” (priority 2008, dated 2011)
